From patent US20130217594A1, “METHODS FOR SCREENING COMPOUNDS FOR CAPABILITY TO INHIBIT PREMALIGNANT SQUAMOUS EPITHELIAL CELL PROGRESSION TO A MALIGNANT STATE” (Institute for Cancer Research d/b/a The Research Center of …, priority 2010, published 2013)

What was measured:
Type in all cases: cell-based, human
[1] = test system: HNSCC cells; test: Quantitative real-time RT-PCR of transcript levels after E2 exposure, HNSCC cells; conditions: E2 1 nM, 24 h
Protocol: Cell lines and treatments. MSK-Leuk1 cells were derived from a dysplastic leukoplakia lesion located adjacent to a SCC of the tongue. MSK-Leuk1 cells were cultured in KGM medium (Lonza, Walkersville, Md.). MSK-Leuk1 cells (passage 33) were determined to be identical to the early passage MSK-Leuk1 cells (Identity Mapping Kit, Coriell Institute for Medical Research, Camden, N.J.). All HNSCC cell lines were derived from patients with SCC of the tongue. SCC9 ([…]) and SCC15 ([…]) cells were cultured in S-MEM medium, supplemented with 2 mM L-glutamine, 100 units/ml penicillin, 100 μg/ml streptomycin and 10% FBS. […]
For all the experiments that involved estradiol (E2) exposure, MSK-Leuk1 cells were cultured in phenol red-free and serum-free DermaLife K Medium (Lifeline Cell Technology, Walkersville, Md.). […] Cells were harvested after the appropriate treatment period and analyzed.
Quantitative real-time reverse transcription PCR. RNA was extracted from pelleted cultured cells using the RNeasy Mini kit (Qiagen, Valencia, Calif.) and its quality (18S and 28S RNA) was evaluated by gel electrophoresis. cDNA was synthesized from 1 μg of total RNA, using the High Capacity cDNA Archive Kit (Applied Biosystems, Inc., Foster City, Calif.). […] Transcript levels were quantified and expressed relative to those of the human transferrin receptor (TFRC) as 2^-ΔCt.

[2] = test system: MSK-Leuk1 cells; test: Cell motility assay (scratch gap closure); conditions: vector or CYP1B1 shRNA, E2 1 nM, 16 h post-scratch
Protocol: Cell motility assay. MSK-Leuk1 cells, expressing either vector or CYP1B1 shRNA, were cultured in phenol red-free and serum-free medium for 48 h and then plated at 70% confluence. After 24 h, the cells were treated with either vehicle or E2 (1 nM) in triplicate, as described above. When cells reached 100% confluence (48 h later), the surface of the cell culture dish was carefully scratched using a micropipette tip, thus making an evenly distributed gap in the cell monolayer. The medium was replaced, and five representative images of each gap were acquired at 0 h using a Nikon TE-2000U wide field inverted microscope (Optical Apparatus Co., Ardmore, Pa.) equipped with a Roper Scientific Cool Snap HQ camera. Another set of 5-10 representative images per gap was obtained following a 16-h incubation. The area devoid of cells was measured on every image using MetaMorph 7.0 (Molecular Devices, Inc., Sunnyvale, Calif.). The gap closure percentages were calculated as (area at 0 h−area at 16 h)/(area at 0 h).
In addition, a time-lapse movie capturing the process of gap closure in vector-expressing MSK-Leuk1 cells was obtained. The medium was replaced with fresh medium containing 25 mM HEPES buffer, and cells were allowed to incubate for 1 h at 37° C. […] The percentage of proliferating cells (those rounded up for cell division) was counted in this representative area.

[3] = test system: MSK-Leuk1 cells; test: Apoptosis assay (Guava Nexin, annexin V); conditions: for decrease of apoptosis: E2 1 nM, 72 h
Protocol: Apoptosis assay. Apoptosis was assessed using the Guava Nexin® (Millipore Corp., Billerica, Mass.). Fifty thousand cells were plated per well in 6-well plates. After the appropriate treatment, floating cells were collected, combined with attached cells following trypsinization, and resuspended in DermaLife® K Medium (Lifeline Cell Technology, Walkersville, Md.) supplemented with 5% FBS. The cell suspension (100 μl) was incubated with 100 μl of Guava Nexin® Reagent for 20 min, according to the manufacturer's instructions. Two thousand cells were analyzed from each sample using the Guava EasyCyte™ system, and the resulting data were expressed as a percentage of apoptotic cells (annexin V positive cells/total number of cells counted).

[4] = test system: MSK-Leuk1 cells; test: Quantitative real-time RT-PCR of transcript levels after E2 exposure, MSK-Leuk1 cells; conditions: E2 1 nM
Protocol: For all the experiments that involved estradiol (E2) exposure, MSK-Leuk1 cells were cultured in phenol red-free and serum-free DermaLife K Medium (Lifeline Cell Technology, Walkersville, Md.). SCC cells were cultured in their respective media with no phenol red, supplemented with charcoal-stripped serum (Gibco, Carlsbad, Calif.). Cells were incubated for 48 h to remove endogenous estrogens and then plated at 70% confluence. After 24 h, the medium was replaced with either control medium containing vehicle (0.01% ethanol) or medium supplemented with 1 nM E2 (Sigma-Aldrich, St. Louis, Mo.). Cells were harvested after the appropriate treatment period and analyzed.
Quantitative real-time reverse transcription PCR. RNA was extracted from pelleted cultured cells using the RNeasy Mini kit (Qiagen, Valencia, Calif.) and its quality (18S and 28S RNA) was evaluated by gel electrophoresis. cDNA was synthesized from 1 μg of total RNA, using the High Capacity cDNA Archive Kit (Applied Biosystems, Inc., Foster City, Calif.). Three μl of the resulting cDNA were mixed with 12.5 μl of 2× TaqMan® Universal PCR master mix and 1.25 μL of 20× primer mix (Applied Biosystems) in a final reaction volume of 25 μL, according to the manufacturer's instructions. Reactions were performed in triplicate in an Applied Biosystems 7900HT Fast Real-Time PCR System using universal conditions. Transcript levels were quantified and expressed relative to those of the human transferrin receptor (TFRC) as 2^-ΔCt.

[5] = test system: MSK-Leuk1 cells; test: Cell proliferation (total DNA, Fluorescent DNA Quantitation kit); conditions: vector-expressing MSK-Leuk1 cells, E2 1 nM, 72 h, not statistically significant
Protocol: Cell proliferation. Fifty thousand cells/well were plated in 6-well plates. After the appropriate treatment, the DNA content of the cells, an indirect measure of proliferation, was determined using a Fluorescent DNA Quantitation kit (Bio-Rad Laboratories, Hercules, Calif.). In brief, cells were harvested, sonicated in 0.1× TEN assay buffer (Bio-Rad Laboratories) for 5 s, and incubated with a Hoechst dye mixture (BioRad Laboratories) for 1 h. Total DNA was measured using Fluoroscan Ascent FL (Thermo Fisher Scientific, Waltham, Mass.) at an excitation wavelength of 360 nm and an emission wavelength of 460 nm.

| SMILES | levels of ERβ, CYP1B1 and COMT transcripts [1] | effect of treatment on motility (gap closure) [2] | decrease of apoptosis ([3]; CYP1B1 shRNA-expressing MSK-Leuk1 cells, P=0.015) [%] | decrease of apoptosis ([3]; vector-expressing MSK-Leuk1 cells, P=0.030) [%] | levels of COMT and ERβ transcripts post-treatment [4] | induction of CYP1B1 transcript levels over vehicle-treated controls ([4]; 24 h, P=0.0004) [fold] | time of peak induction of CYP1B1 transcripts ([4]; time course) [h] | increase of cell proliferation [5] [%] | effect on E2-mediated decrease in apoptosis ([3]; MSK-Leuk1 cells, fulvestrant 1 μM added to E2 1 nM) |
| --- | --- | --- | --- | --- | --- | --- | --- | --- | --- |
| C[C@]12CC[C@@H]3c4ccc(O)cc4CC[C@H]3[C@@H]1CC[C@@H]2O [E2, 17β-estradiol] | did not alter the level of any of the transcripts of interest | not affected | 30.1 | 25.5 | remained unaltered | 2.3 | 6 | 10 |  |
| C[C@]12CC[C@@H]3c4ccc(O)cc4C[C@@H](CCCCCCCCC[S+]([O-])CCCC(F)(F)C(F)(F)F)[C@H]3[C@@H]1CC[C@@H]2O (stereo partly drawn) [fulvestrant] |  |  |  |  |  |  |  |  | restored |
